Reference: patent publication US20250009819A1, “NOVEL PROBIOTICS AND USE THEREOF” (PBLBIOLAB CO., LTD., priority 2021, published 2025)

Experiments:
[1] = system: animals with intestinal and brain diseases induced by TNBS; assay: Animals with intestinal and brain diseases induced by TNBS: improvement effect in colon; assay type: in vivo, C57BL/6 male mice; details: TNBS-treated mice, 1×10^9 CFU/mouse or sulfasalazine 50 mg/kg orally once a day for 5 days
Procedure: Then, the supernatant was obtained by centrifugation for 10 minutes at 4° C. and 10,000 g. A volume of 50 μl of the supernatant was added to 0.95 mk of reaction solution (containing 1.6 mM tetramethyl benzidine and 0.1 mM H2O2), reacted at 37° C., and absorbance was monitored over time at 650 nm. […] Indicators of this supernatant were measured using an ELISA kit (Ebioscience). C57BL/6 male mice (5 weeks old, 19-21 g) were divided (6 mice in each group) and acclimatized to the laboratory for 1 week. […] Meanwhile, the normal group was orally administered with 0.1 ml of physiological saline. From the next day, the mice were orally administered once a day for 5 days with lactic acid bacteria as a test sample suspended in physiological saline solution at a concentration of 1×10^9 CFU per mouse (NK210 alone (LR): 1×10^9 CFU/mouse, NK219 alone (BL): 1×10^9 CFU/mouse, NK209 alone (LL): 1×10^9 CFU/mouse, combined (MX, 210+219): NK210, 8×10^8 CFU/mouse and NK219, 2×10^8 CFU/mouse, combined (MX, 209+219) NK209, 8×10^8 CFU/mouse and NK219, 2×10^8 CFU/mouse, LR+BL+LL: NK210, 4×10^8 CFU/mouse, NK219, 2×10^8 CFU/mouse, and NK209, 4×10^8 CFU/mouse, heat treated (H—), respectively: 1×10^9 CFU/mouse). […] The day following the conclusion of sample administration, the experimental animals were sacrificed, and samples from the brain hippocampus, colon, and spleen were collected. In the Hippocampus, inflammatory indicators, such as TNF-α and IL-10, were measured using ELISA. In the colon, intestinal length and inflammatory indicators, such as TNF-α and IL-10, were measured. In the spleen, Th1 cells and Treg cells were measured by FACS (Fluorescence-Activated Cell Sorting).

[2] = system: Clostridium difficile; assay: Clostridium difficile proliferation in gut microbiota (PCR); assay type: cell-based; details: for Gut microbiota Inhibition of difficile bacteria proliferation: human feces culture, lactic acid bacteria 1×10^6 CFU/mL, anaerobic 24 hr
Procedure, shortened: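 Human fecal supernatant, diluted 10,000-fold in GAM, co-cultured anaerobically 24 h with lactic acid bacteria (1×10^6 CFU/mL). C. difficile quantified by PCR on pellet DNA (95 °C 30 s; 42 cycles 95 °C 5 s/72 °C 30 s); supernatant LPS measured by ELISA.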

[3] = system: animals with intestinal and brain diseases induced by TNBS; assay: Animals with intestinal and brain diseases induced by TNBS: cognitive improvement, hippocampus; assay type: in vivo, C57BL/6 male mice; details: for Cognitive function Exploration (%) / Cognitive function Spont. alteration (%) / Concentration in the hippocampus IFN-γ / Concentration in the hippocampus IL-10 / Concentration in the hippocampus TNF-α: TNBS-treated mice, 1×10^9 CFU/mouse or sulfasalazine 50 mg/kg orally once a day for 5 days; for cognitive impairment caused by TNBS: result in words, summary of Table 18
Procedure: Indicators of this supernatant were measured using an ELISA kit (Ebioscience). […] The animal's movements were recorded, and reported as arm entries when the animal entered the arm with its hind paw, and the animal's movement was represented by an alternation, which was defined as one alternation when the animal passed through the three arms in succession. The amount of spontaneous alternation behavior was expressed as a percentage between the actual number of alternations and the maximum possible number of alternations (i.e., the total number of […] minus 2). The experiment was conducted in a box (40×40×40 cm) made so that the outside could not be seen from the inside. Two objects (A, A′) of the same shape and size were fixedly disposed in a box and the mouse was relocated to start from the center of the box. Then, the number of times the mouse made contact with the two objects was recorded for 10 minutes. After 24 hours, one of the two objects was replaced with a new object (A, B). Then, one original object and one new object were prepared, and the animal's exploration time was measured. C57BL/6 male mice (5 weeks old, 19-21 g) were divided (6 mice in each group) and acclimatized to the laboratory for 1 week. […] Meanwhile, the normal group was orally administered with 0.1 ml of physiological saline. From the next day, the mice were orally administered once a day for 5 days with lactic acid bacteria as a test sample suspended in physiological saline solution at a concentration of 1×10^9 CFU per mouse (NK210 alone (LR): 1×10^9 CFU/mouse, NK219 alone (BL): 1×10^9 CFU/mouse, NK209 alone (LL): 1×10^9 CFU/mouse, combined (MX, 210+219): NK210, 8×10^8 CFU/mouse and NK219, 2×10^8 CFU/mouse, combined (MX, 209+219) NK209, 8×10^8 CFU/mouse and NK219, 2×10^8 CFU/mouse, LR+BL+LL: NK210, 4×10^8 CFU/mouse, NK219, 2×10^8 CFU/mouse, and NK209, 4×10^8 CFU/mouse, heat treated (H—), respectively: 1×10^9 CFU/mouse). […] The day following the conclusion of sample administration, the experimental animals were sacrificed, and samples from the brain hippocampus, colon, and spleen were collected. In the Hippocampus, inflammatory indicators, such as TNF-α and IL-10, were measured using ELISA. In the colon, intestinal length and inflammatory indicators, such as TNF-α and IL-10, were measured. In the spleen, Th1 cells and Treg cells were measured by FACS (Fluorescence-Activated Cell Sorting).

[4] = system: TNF-α; assay: TNF-α expression in LPS-treated macrophages (ELISA); assay type: cell-based, C57BL/6 mice; details: macrophages treated with lactic acid bacteria and LPS for 24 hours
Procedure, shortened: (§1)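 Peritoneal macrophages were elicited in male C57BL/6 mice (6 weeks) by i.p. 4% thioglycolate and harvested 96 h later. Cells at 0.5×10^6/well were treated with lactic acid bacteria plus LPS for 24 h. Cytokines in the supernatant were quantified by ELISA.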

[5] = system: IL-10; assay: IL-10 expression in LPS-treated macrophages (ELISA); assay type: cell-based, C57BL/6 mice; details: macrophages treated with lactic acid bacteria and LPS for 24 hours
Procedure, shortened: as §1

Row | Substance | Colon IFN-γ [1] [pg/mg] | Colon IL-10 [1] [pg/mg] | Colon MPO [1] [μUnit/mg] | Colon TNF-α [1] [pg/mg] | Colon length (cm) [1] [cm] | Gut microbiota Inhibition of difficile bacteria proliferation [2] | inhibiting the proliferation of intestinal Clostridium difficile ([2]; result in words, summary of Table 2) | Cognitive function Exploration (%) [3] [%] | Cognitive function Spont. alteration (%) [3] [%] | Concentration in the hippocampus IFN-γ [3] [pg/mg] | Concentration in the hippocampus IL-10 [3] [pg/mg] | Concentration in the hippocampus TNF-α [3] [pg/mg] | Macrophage Inhibition of TNF-α expression [4] | Macrophage Induction of IL-10 expression [5] | cognitive impairment caused by TNBS [3]
1 | Lactococcus lactis NK209 | 7.89 | 17.10 | 15.65 | 20.12 | 4.89 | +++ (very strongly (+++; >90%)) | significant effect | 70.20 | 58.8 | 30.81 | 35.53 | 13.54 | + (weakly (+; >20-60%)) | + (weakly (+; >20-60%)) | –
2 | Bifidobacterium longum NK219 | 7.79 | 17.20 | 16.24 | 20.57 | 4.82 | +++ (very strongly (+++; >90%)) | – | 75.37 | 65.32 | 25.02 | 40.26 | 11.93 | +++ (very strongly (+++; >90%)) | +++ (very strongly (+++; >90%)) | improved
3 | Lactobacillus rhamnosus NK210 | 8.42 | 15.31 | 18.43 | 23.84 | 4.63 | +++ (very strongly (+++; >90%)) | – | 74.25 | 62.45 | 26.28 | 38.64 | 12.14 | ++ (strongly (++; >60-90%)) | +++ (very strongly (+++; >90%)) | improved
